Measured values: article PMC7589783, “Newly Synthesized Imino-Derivatives Analogues of Resveratrol Exert Inhibitory Effects in Breast Tumor Cells” (International Journal of Molecular Sciences, 2020)
Where “and” joins values, the source holds several entries; their conditions need not be identical. Equal values may be shown once. Entries after “also recorded” stand apart in the source; their conditions may differ. Read-outs that look alike come from different tables or passages of the source.

Legend:
[1] = tested on: human embryonic kidney 293 (HEK293) cells; assay: MTT cell viability assay in HEK293 cells; type: cell-based; details: for IC50: Homo sapiens, HEK293, 48 h treatment, MTT assay, read-out: IC50 (µM) ± S.D. HEK293; for Anti-proliferative / inhibitory effects in non-tumoral HEK293 cells: result in words
Description: (§1) SkBr3 cells were maintained in RPMI-1640 (Life Technologies, Milan, Italy) without phenol red, supplemented with 5% fetal bovine serum (FBS) and 100 μg/mL penicillin/streptomycin (Life Technologies, Milan, Italy). MCF-7 and HEK-293 cells were maintained in DMEM (Dulbecco’s modified Eagle’s medium) (Life Technologies, Milan, Italy) with phenol red, with a supplement of 5% FBS and 100 μg/mL of penicillin/streptomycin.
(§2) The effects of each compound on cell viability were determined by the MTT [3-(4,5-dimethylthiazol-2-yl)-2,5-diphenyltetrazolium bromide] assay, as previously reported. Cells were seeded in quadruplicate in 96-well plates in regular growth medium and grown until 70–80% confluence. […] Relative cell viability was determined by MTT assay according to the manufacturer’s protocol (Sigma-Aldrich, Milan, Italy). Mean absorbance for each drug dose was expressed as a percentage of the control untreated well absorbance and plotted versus drug concentration. IC50 values represent the drugs concentration able to reduce the cells viability of 50% respect to the untreated control cells (vehicle).

[2] = tested on: MCF-7 breast cancer cells; assay: MTT cell viability assay in MCF-7 cells; type: cell-based; details: Homo sapiens
Description: as §1, §2

human topoisomerase II = target: T1, human topoisomerase II (Homo sapiens, UniProt P11388); assay: Human topoisomerase II (hTopoII) decatenation assay; type: biochemical; details: 50 μM
T1 construct: purchased TopoGEN, Port Orange, FL, USA
Description: Human topoisomerase II decatenation assays were carried out incubating the human topoisomerase II (TopoGEN, Port Orange, FL, USA) with kinetoplast DNA (used as substrate) and all the tested compounds, according to the guidelines of the manufacturer (TopoGEN, Port Orange, FL, USA), with some modifications.

SkBr3 cells = assay: TUNEL assay in SkBr3 cells; type: cell-based, human
Description: (§3) Cell apoptosis was determined by TdT-mediated dUTP Nick-End Labeling (TUNEL) assay, conducted using DeadEnd Fluorometric TUNEL System (Promega, Milan, Italy) and performed according to the manufacturer’s instructions. […] After fixation, cells were permeabilized in 0.2% Triton X-100 solution in PBS for 5 min. After washing twice with washing buffer for 5 min, the cells were covered with equilibration buffer at room temperature for 5–10 min. The labeling reaction was performed using terminal deoxynucleotidyl transferase end-labeling TdT and fluorescein-dUTP cocktail for each sample and incubated for 1 h at 37 ◦C where TdT catalyzes the binding of fluorescein-dUTP to free 3′OH ends in the nicked DNA. After rinsing, cells were washed with 2 × SSC solution buffer and subsequently incubated with 4′,6-Diamidino-2-Phenylindole (DAPI, Sigma-Aldrich, Milan, Italy) to stain nuclei and analyzed using the Cytation 3 Cell Imaging Multimode Reader (BioTek, Winooski, VT, USA). Statistical analysis was done using ANOVA followed by Newman–Keuls’ testing to determine differences in means. p < 0.05 was considered as statistically significant.

[3] = tested on: SkBr3 breast cancer cells; assay: MTT cell viability assay in SkBr3 cells; type: cell-based; details: Homo sapiens
Description: as §1, §2

[4] = In vitro bioavailability, dialysis tubing procedure with pepsin and pancreatin digestion; type: in vitro ADME; details: for In vitro bioavailability (%) 4 h pH 7.0: after pancreatin digestion (4 h); for In vitro bioavailability (%) 2 h pH 1.0: after pepsin digestion (2 h); for In vitro bioavailability (%) Total 6 h: total after pepsin (2 h) and pancreatin (4 h) digestions
Description: In vitro bioavailability studies of compounds 3, 4 (the salt of compound 3) and resveratrol were performed in solutions simulating gastric and intestinal environment through a modified version of the traditional technique of dialysis membranes. The method of the dialysis membrane is divided in two enzymatic digestion phases: A first phase in which the action of pepsin occurs and a second phase in which participates the pancreatin (see experimental section). Bioavailability is defined as the percentage of analyte recovered in the bio-accessible fraction after in vitro digestion, in relation to the original undigested sample, as calculated according to the following equation [32]:Bioavailability (%) = (Bioaccessible content/Total content) × 100
In vitro bioavailability studies were performed according to the dialysis tubing procedure as previously reported in literature.
For this purpose, 100 µL of each tested compound (10 mM in DMSO) were employed and the concentration of each sample was determined using a UV/VIS spectrometer V-530 (Jasco, Cremella (LC), Italy).
The percentages were calculated according to the equations obtained from the prepared calibration curves at pH 1.0 and 7.0, respectively, for the two tested molecules.
The experiments were carried out in triplicate.

recombinant human topo I = target: T2, recombinant human topo I (Homo sapiens, UniProt P11387); assay: Human topoisomerase I (hTopoI) relaxation assay; type: biochemical; details: 50 μM
T2 construct: purchased TopoGEN, Port Orange, FL, USA
T2 sequence (P11387 1-765): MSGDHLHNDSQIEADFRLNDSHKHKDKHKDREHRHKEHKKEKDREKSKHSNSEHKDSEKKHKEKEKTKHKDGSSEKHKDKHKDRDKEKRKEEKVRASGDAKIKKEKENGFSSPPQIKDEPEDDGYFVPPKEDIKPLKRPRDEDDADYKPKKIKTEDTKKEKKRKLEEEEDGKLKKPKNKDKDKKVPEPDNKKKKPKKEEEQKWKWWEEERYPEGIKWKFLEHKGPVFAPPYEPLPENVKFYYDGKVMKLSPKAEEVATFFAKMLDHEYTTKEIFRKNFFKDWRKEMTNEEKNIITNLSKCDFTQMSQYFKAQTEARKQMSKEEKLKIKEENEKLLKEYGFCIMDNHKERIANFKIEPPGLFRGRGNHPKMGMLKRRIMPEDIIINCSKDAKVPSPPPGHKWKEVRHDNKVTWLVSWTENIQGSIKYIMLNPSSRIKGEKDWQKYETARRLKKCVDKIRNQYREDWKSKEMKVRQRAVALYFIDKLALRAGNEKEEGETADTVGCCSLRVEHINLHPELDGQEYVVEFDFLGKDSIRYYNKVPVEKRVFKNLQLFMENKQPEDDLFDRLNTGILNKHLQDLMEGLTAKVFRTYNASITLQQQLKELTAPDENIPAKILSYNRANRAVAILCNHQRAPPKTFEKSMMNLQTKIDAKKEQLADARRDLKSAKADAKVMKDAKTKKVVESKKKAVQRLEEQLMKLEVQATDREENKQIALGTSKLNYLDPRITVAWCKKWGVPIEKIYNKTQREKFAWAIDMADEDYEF
Description: Human topoisomerase I relaxation assays were performed incubating the supercoiled pHOT1 (used as substrate) with the recombinant human topo I (TopoGEN, Port Orange, FL, USA) and all the tested compounds, according to the guidelines of the manufacturer (TopoGEN, Port Orange, FL, USA), with some modifications.

MCF-7 cells = assay: TUNEL assay in MCF-7 cells; type: cell-based, human
Description: as §3

[5] = MCF7, 48 h treatment, read-out: IC50 (µM) ± S.D. MCF-7
[6] = SK-BR-3, 48 h treatment, read-out: IC50 (µM) ± S.D. SkBr3
[7] = 50 µM for 48 h (data not shown)

T1 sequence (P11388 whole entry): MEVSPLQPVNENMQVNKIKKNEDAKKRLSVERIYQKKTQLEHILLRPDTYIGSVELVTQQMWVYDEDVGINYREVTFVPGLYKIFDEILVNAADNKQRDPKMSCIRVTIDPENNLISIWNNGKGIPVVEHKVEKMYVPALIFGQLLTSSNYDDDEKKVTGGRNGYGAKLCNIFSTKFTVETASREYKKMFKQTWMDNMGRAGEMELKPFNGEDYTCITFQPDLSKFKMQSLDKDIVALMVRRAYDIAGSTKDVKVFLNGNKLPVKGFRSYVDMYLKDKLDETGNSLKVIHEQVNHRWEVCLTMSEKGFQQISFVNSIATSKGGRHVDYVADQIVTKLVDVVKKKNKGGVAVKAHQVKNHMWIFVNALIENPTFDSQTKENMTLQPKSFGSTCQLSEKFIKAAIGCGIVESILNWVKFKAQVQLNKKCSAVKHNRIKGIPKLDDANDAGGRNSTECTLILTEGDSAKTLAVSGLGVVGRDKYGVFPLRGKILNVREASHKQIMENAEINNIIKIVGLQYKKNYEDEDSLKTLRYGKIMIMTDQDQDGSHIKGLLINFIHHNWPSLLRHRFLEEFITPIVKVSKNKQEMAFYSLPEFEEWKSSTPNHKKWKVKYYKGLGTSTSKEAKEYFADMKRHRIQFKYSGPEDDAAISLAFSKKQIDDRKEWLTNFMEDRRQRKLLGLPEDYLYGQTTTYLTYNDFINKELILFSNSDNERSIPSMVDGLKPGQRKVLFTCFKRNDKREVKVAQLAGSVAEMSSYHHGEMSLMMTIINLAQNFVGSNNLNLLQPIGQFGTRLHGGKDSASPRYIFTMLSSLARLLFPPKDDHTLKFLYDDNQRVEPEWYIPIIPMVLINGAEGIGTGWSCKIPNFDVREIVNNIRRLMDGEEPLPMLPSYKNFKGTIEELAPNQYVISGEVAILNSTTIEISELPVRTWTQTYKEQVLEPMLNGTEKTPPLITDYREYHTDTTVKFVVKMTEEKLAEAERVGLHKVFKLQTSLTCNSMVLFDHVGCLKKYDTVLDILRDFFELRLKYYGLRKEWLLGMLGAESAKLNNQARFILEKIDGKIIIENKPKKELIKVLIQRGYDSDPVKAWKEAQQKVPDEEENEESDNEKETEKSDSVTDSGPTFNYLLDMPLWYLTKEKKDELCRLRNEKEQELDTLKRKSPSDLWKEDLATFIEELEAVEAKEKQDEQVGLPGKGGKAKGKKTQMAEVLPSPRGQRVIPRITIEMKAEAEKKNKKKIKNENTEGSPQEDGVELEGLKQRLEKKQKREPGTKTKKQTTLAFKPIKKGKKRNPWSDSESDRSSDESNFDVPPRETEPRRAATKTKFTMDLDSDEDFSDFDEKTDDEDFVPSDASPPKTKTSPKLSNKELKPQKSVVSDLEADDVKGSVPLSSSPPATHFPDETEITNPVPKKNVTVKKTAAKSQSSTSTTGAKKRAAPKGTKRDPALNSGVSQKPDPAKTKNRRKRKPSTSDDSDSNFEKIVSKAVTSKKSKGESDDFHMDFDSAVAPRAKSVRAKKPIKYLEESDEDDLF

SMILES | IC50 [1] [µM] | Anti-proliferative / inhibitory effects in non-tumoral HEK293 cells [1] | IC50 [2, 5] [µM] | Inhibition of hTopoII activity (kDNA decatenation) (human topoisomerase II) | Percentage of TUNEL-positive cells, SkBr3 (SkBr3 cells; 10 μM for 24 h, versus vehicle) | IC50 [3, 6] [µM] | In vitro bioavailability (%) 4 h pH 7.0 [4] | In vitro bioavailability (%) 2 h pH 1.0 [4] | In vitro bioavailability (%) Total 6 h [4] | Inhibition of hTopoI (relaxation of supercoiled DNA) (recombinant human topo I) | Percentage of TUNEL-positive cells, MCF-7 (MCF-7 cells; 10 μM for 24 h, versus vehicle) | IC50 ([2]; MCF7, treatment time not given, read-out: IC50, cytotoxic activity, MCF-7) [µM] | TUNEL staining, SkBr3 (SkBr3 cells; [7]) | IC50 ([3]; SK-BR-3, treatment time not given, read-out: IC50, cytotoxic activity, SkBr3) [µM] | TUNEL staining, MCF-7 (MCF-7 cells; [7])
O=C(O)c1ccc(/N=C/c2cc(O)ccc2O)cc1 [Compound 3, (E)-4-(2,5-dihydroxybenzylidene)-imino-benzoic acid] | > 90 | did not elicit inhibitory effects; also recorded: did not induce inhibitory effects | 12 | able to inhibit | increased the percentage | 15 | 31% and 31 ± 1.1% | 16% and 16 ± 0.7% | 47% and 47 ± 1.6% | no inhibition of hTopoI was observed | increased the percentage |  |  |  | 
O=C(O)c1ccc(/N=C/c2cc(O)ccc2O)cc1 [Compound 4, (E)-4-(2,5-dihydroxybenzylidene)-imino-sodium benzoate] |  | did not elicit anti-proliferative effects; also recorded: did not induce inhibitory effects |  | able to inhibit |  |  | 28% and 28 ± 0.9% | 17% and 17 ± 0.8% | 45% and 45 ± 1.3% | no inhibition of hTopoI was observed |  | 50 | positive for TUNEL staining | 62 | positive for TUNEL staining
O=C(O)c1ccc(/N=C/c2cc(O)cc(O)c2)cc1 [Compound 6, (E)-4-(3,5-dihydroxybenzylidene)-imino-benzoic acid] | > 90 |  | > 90 |  |  | > 90 |  |  |  |  |  |  |  |  | 
Oc1ccc(C=Cc2cc(O)cc(O)c2)cc1 [resveratrol, 3, 4′,5-trihydroxy-stilbene] | > 90 |  | > 90 | inhibited the hTopoII |  | > 90 | 23 ± 0.8% | 12 ± 0.6% | 35% and 35 ± 1.1% | no inhibition of hTopoI was observed |  |  |  |  | 
